Tests used:
[1] = test system: subjects with Parkinson's Disease (PD); experiment: Levodopa challenge test: MDS-UPDRS Part III motor examination in OFF state vs ON state; type: in vivo, human; conditions: ON minus OFF, mean (SD)
Method: To participate in the study, participants were required to meet several inclusion criteria. First, they needed a clinical diagnosis of PD confirmed by a treating movement disorders neurologist. Participants had to be between the ages of 40 and 70. […] Participants had to be willing to undergo a levodopa challenge test, which involves coming to an assessment site for evaluation in the morning after not taking levodopa since the night before (e.g., at least 12 hours). They would then take levodopa at the site, wait for it to take effect (achieving the “ON” state), and repeat the motor evaluation. Additionally, participants needed to be ambulatory in the “OFF” state, meaning they could walk safely without a walking aid on a flat surface at the start of the levodopa challenge test. […]
At step 305, system 100 may receive data from subjects that were assessed in an OFF-state. […]
In some aspects, the site investigator, who is a movement disorders specialist, was tasked with performing the MDS-UPDRS Part III motor examination. […] Specific tasks, including toe tapping and leg agility, were performed using the production device while wearing the wearable insole tests device to enable a quantitative analysis of these movements.
At step 310, system 100 may receive data from the subjects that were assessed in the ON-state. […]

[2] = test system: subjects with Parkinson's Disease (PD); experiment: Speech assessment with digital mobile speech-based platform in OFF vs ON medication state; type: in vivo, human; conditions: before vs after levodopa treatment, FIG. 103
From the text: Additionally, subjects were also tasked with performing voice and speech assessments using the digital mobile speech-based platform. These speech and language tasks were designed to evaluate different aspects of verbal ability and cognitive function in participants. In an aspect, these tasks were organized to be conducted in a quiet environment to ensure accurate measurement of speech parameters. In a picture description task, participants are shown a static image depicting an event and asked to describe it in their own words. This task serves as a proxy for spontaneous discourse, providing insights into natural language use. […] In a paragraph reading task, participants were required to read one of three standard paragraphs designed to include all English language phonemes and an equal number of details and information units. This task evaluates reading fluency and pronunciation. […] During this task, gait parameters were measured simultaneously using the wearable insoles test device and the production device. […] This involved repeating the same set of voice-related activities performed in the OFF state, including paragraph reading, picture description, object naming, rapid syllable repetition, and sustained phonation. Conducting these tasks in a quiet environment ensured that the speech parameters were accurately measured without external distractions. […]

N[C@@H](Cc1ccc(O)c(O)c1)C(=O)O [levodopa]
mean difference in the MDS-UPDRS III between the ON and OFF state ([1]; all subjects): -19.1 (SD=10) | mean difference in the LE subscore between the ON and OFF state ([1]; lower extremity subscore of MDS-UPDRS III): −5.7 (SD=4) | change in average word duration between medication states [2]: prevalent trend of decreasing word duration
